The text below walks through data of US7667052B2 (Eisai R&D Management Co., Ltd., priority 2003, dated 2010).

Assay [1] relates to transcription from VEGF promoter. Nature of the assay: VEGF transcription-suppressing activity, VEGF-PLAP reporter in U251/1-8 cell. It is filed as cell-based. The conditions noted are these: Homo sapiens, U-251, U251/1-8 cell, PLAP activity, low oxygen 18 hours. An outline of the steps:
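U251 glioma clone stably carrying a ~2.3 kb human VEGF promoter–secreted PLAP reporter, 4×10^4 cells/well, exposed to 3-fold dilutions of compound for 18 h under low oxygen. Supernatant PLAP read by chemiluminescence at pH 10.0; IC50 = 50% suppression, normoxia 0%, hypoxia 100%.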

Assay [2] relates to human breast cancer BSY-1 cell. Nature of the assay: Solid cancer proliferation suppressing action, subcutaneous transplant. Type of assay: in vivo, mice. The following applies: single administration, 10 mg/kg intravenous. The method, then:
In order to study solid cancer proliferation suppressing action of 11107B in vivo, human breast cancer BSY-1 cell was transplanted to the subcutaneous body sides of mice. The animals were grouped so that the average of the volumes of the respective groups became uniform, when it reached about 100 mm^3. Control group was made as 10 mice and 11107B-administering groups were made as 5 mice. 11107B was administrated for the 11107B-administering groups once by intravenous injection so as to be 10 mg/kg, and a vehicle was administered to the control group. The tumor volumes on the fifth day, eighth day, 12th day and 15th day were measured, and relative tumor volumes were determined setting the tumor volume at the initiation of administration as 1.

Assay [3] has as its system H460, U251, BSY-1, MDA-MB435, PC-3, DU145, OVCAR-3, WiDr and B16 melanoma cells. Nature of the assay: Growth suppressing activity to various cancer cells, Alamar Blue. The following applies: 72 h; range over nine cancer cell lines, 3 days; read-out: growth suppressing activity IC50 values for the studied cell lines. It is filed as cell-based, human; mouse. The method, then:
H460 human lung cancer cell, U251 human glioma cell, BSY-1 and MDA-MB435 human breast cancer cell, PC-3 and DU145 human prostate cancer cell, OVCAR-3 human ovarian cancer cell, WiDr human colon cancer cell and B16 melanoma mouse melanoma cell cultured in DMEM (manufactured by SIGMA Co., Ltd.) containing 10% fetal calf serum were dispensed in 96-well plates by 2×10^3 cells/180 μl, and they were cultured at 37° C. overnight in a CO2 incubator (5% CO2). Then, 20 μL of the above-mentioned incubation solution containing test compounds diluted with 2-fold succession was added, and they were further cultured in a CO2 incubator for 3 days.
20 μL of Alamar Blue reagent (Biosource Co.) was added to the cultured cells, and after 3 to 5 hours, fluorescence activity (ex 530 nm/em 590 nm) was measured by a micro plate reader (ARBO, Perkin-Elmer Co.). The cell growth of the control to which the compound is not added is set as 100%, the concentration at which it was suppressed by 50% was determined.

Assay [4] has as its system VEGF production in HT1080. Put plainly: VEGF production suppressing action in various carcinoma cells, ELISA. The conditions noted are these: Homo sapiens; HT 1080, low oxygen 18 hours. It is filed as cell-based. The method, then:
(§1) WiDr human colon cancer cell, PC3 human prostate cancer cell, DU145 human […] cancer cell and HT1080 human […] cancer cell, which were cultured in DULBECCO-modified eagle medium (manufactured by DMEM SIGMA Co., Ltd.) containing 10% fetal calf serum, penicillin (100 unit/ml) and streptomycin (100 μg/ml) were dispensed in 96 well plates by 3×10^4 cells/well. After culturing at 37° C. overnight in a CO2 incubator (5% CO2), the media were removed, and 180 μl of the above-mentioned incubation solution was charged. After adding 20 μL of the above-mentioned incubation solution containing the test compound diluted with 3-fold succession, they were incubated in a low oxygen ([…]) incubator for 18 hours. The supernatants thereof were measured by an ELISA kit (Immunobiology Research Institute).
(§2) Concentration at which the amount of VEGF expressed by low oxygen stimulation was suppressed to 50% (IC50 value) was determined and results are shown in Table 10.
In general terms: In an ELISA, binding on a coated surface is turned into a signal by an enzyme label.

Assay [5] concerns VEGF production in PC3 human prostate cancer cell. Described as above. Type of assay: cell-based. The following applies: PC 3, low oxygen 18 hours. As to the method: as §1, §2
For assay [6], the system named is VEGF production in DU145 human colon cancer cell. The assay is described as above. The following applies: DU-145, low oxygen 18 hours. It is filed as cell-based. The method, then:
as §1, §2

The subject of assay [7] is VEGF production in WiDr human colon cancer cell. The assay is described as above. Type of assay: cell-based. The following applies: low oxygen 18 hours. As to the method: as §1, §2

SMILES strings stand for the structures. In brackets after ≈: the same amount, converted by molar mass. Like-named read-outs stand apart in the source and are kept apart here.

The term IC50 denotes the concentration at which inhibition is half-maximal.

`CCC(O)C(C)C1OC1CC(C)/C=C/C=C(\C)C1OC(=O)CC(O)CCC(C)(O)C(OC(C)=O)/C=C/C1C` (centres unmarked) [11107B]: the IC50 was 1 to 100 nM in assay [1] (read-out: IC50 values of VEGF transcription-suppressing activity (range given)); 1.8 nM in assay [1] (read-out: VEGF transcription suppressing activity (IC50: nM)); 0.9 to 2.9 nM in assay [3]; 1.89 ng/mL (≈ 3.52 nM) in assay [4]; 0.71 ng/mL (≈ 1.32 nM) in assay [5]; 1.05 ng/mL (≈ 1.96 nM) in assay [6]. Besides, the IC50 in assay [7] was found to be 0.65 ng/mL (≈ 1.21 nM). The “solid tumor suppression, in words” value in assay [2] was “showed the effect of suppressing solid tumor”.
